Assay results as given in PubChem BioAssay (NCI).
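Dose response: 5 concentrations. Exposure: 48 h. Format: 96-well plates. Endpoint: linear interpolation; highest concentration if not reached. GI50 = concentration required for 50% inhibition of growth. At the TGI there is no net growth.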

What was measured:
Assay in all cases: inhibition of tumour cell growth, NCI panel, 48 h
NCI-H460 lung = system: NCI-H460 lung
A549 NSCLC = system: A549 NSCLC
OVCAR-8 ovarian = system: OVCAR-8 ovarian
786-0 renal = system: 786-0 renal
OVCAR-5 ovarian = system: OVCAR-5 ovarian
OVCAR-3 ovarian = system: OVCAR-3 ovarian
UACC-62 melanoma = system: UACC-62 melanoma
MDA-MB-435 = system: MDA-MB-435
SR leukemia = system: SR leukemia
UACC-257 melanoma = system: UACC-257 melanoma

SMILES | GI50 (NCI-H460 lung) | TGI (NCI-H460 lung) | GI50 (A549 NSCLC) | TGI (A549 NSCLC) | GI50 (OVCAR-8 ovarian) | TGI (OVCAR-8 ovarian) | GI50 (786-0 renal) | TGI (786-0 renal) | GI50 (OVCAR-5 ovarian) | TGI (OVCAR-5 ovarian) | GI50 (OVCAR-3 ovarian) | TGI (OVCAR-3 ovarian) | GI50 (UACC-62 melanoma) | TGI (UACC-62 melanoma) | GI50 (MDA-MB-435) | TGI (MDA-MB-435) | TGI (SR leukemia) | TGI (UACC-257 melanoma)
COc1ccc(-c2ccc(C3CC(c4ccc(O)cc4)=NN3)o2)c([N+](=O)[O-])c1 (stereo unspecified) | 21.1 µM | 81.8 µM | 25.7 µM | 84 µM | 42.8 µM | > 100 µM | 45.1 µM | > 100 µM | > 100 µM | > 100 µM | 24.1 µM | > 100 µM | 33.1 µM | > 100 µM | 30 µM | > 100 µM |  | 
CC1=CC=NN2C(=O)[C@H](C)C2C1 (stereo partly specified) |  | > 100 µM |  | > 100 µM |  | > 100 µM |  | > 100 µM |  | > 100 µM |  | > 100 µM |  | > 100 µM |  |  | > 100 µM | > 100 µM
COc1ccc2[nH]cc(CCNC(C)=O)c2c1 |  | > 100 µM |  | > 100 µM |  | > 100 µM |  | > 100 µM |  | > 100 µM |  | > 100 µM |  | > 100 µM |  |  |  | > 100 µM
O=C(Cc1nc2ccccc2s1)C(=O)Nc1ccc(Cl)cc1 |  | > 100 µM |  | > 100 µM |  | > 100 µM |  | > 100 µM |  | > 100 µM |  | > 100 µM |  | > 100 µM |  |  |  | > 100 µM
COc1cccc(N2C(=O)c3c(c4[nH]c5ccccc5c4c4ccc(C(C)(C)C)cc34)C2=O)c1 |  | > 100 µM |  | > 100 µM |  | > 100 µM |  | > 100 µM |  | > 100 µM |  | > 100 µM |  | > 100 µM |  |  | > 100 µM | > 100 µM
COc1cc(Nc2cnc3cc(C(F)(F)F)ccc3n2)cc(OC)c1OC |  | > 100 µM |  | > 100 µM |  | > 100 µM |  | > 100 µM |  | > 100 µM |  | > 100 µM |  | > 100 µM |  |  | > 100 µM | > 100 µM
CCN(CC)CCCN(c1cc(OC)cc2nccnc12)S(=O)(=O)c1ccc(C)cc1 |  | > 100 µM |  | > 100 µM |  | > 100 µM |  | > 100 µM |  | > 100 µM |  | > 100 µM |  | > 100 µM |  |  | > 100 µM | > 100 µM
COc1ccc(OCC(=O)O)c2c1CCC(C(C)C)C2=O (stereo unspecified) |  | > 100 µM |  | > 100 µM |  | > 100 µM |  | > 100 µM |  | > 100 µM |  | > 100 µM |  | > 100 µM |  |  |  | > 100 µM
CC(=O)Nc1ccc(/C=C(\NC(=O)c2ccccc2)c2nc3ccc4c(c3[nH]2)C(=O)c2ccccc2C4=O)cc1 |  |  |  | 96.3 µM |  | > 100 µM |  | > 100 µM |  | > 100 µM |  | > 100 µM |  | > 100 µM |  |  |  | > 100 µM
COc1nc2c(OC)cccc2c(OC)c1C=O |  | > 100 µM |  | > 100 µM |  | > 100 µM |  | > 100 µM |  |  |  | > 100 µM |  | > 100 µM |  |  |  | > 100 µM
O=C1NC(=O)C(C(=O)C(=O)Nc2ccc(Br)cc2)C(=O)N1 |  |  |  | > 100 µM |  | > 100 µM |  | > 100 µM |  |  |  | > 100 µM |  | > 100 µM |  |  | > 100 µM | > 100 µM
CC(C)(C)NNC(=O)/C(=C/c1ccc(Oc2ccc(Cl)c(Cl)c2)cc1)NC(=O)c1ccccc1 |  | > 100 µM |  | > 100 µM |  | > 100 µM |  | > 100 µM |  | > 100 µM |  | > 100 µM |  | > 100 µM |  |  | 35.9 µM | > 100 µM
